PubChem BioAssay AID330 (DTP/NCI, 2004)
“And” between values parts separate entries of the source, which are not always exact repeats. Identical values can stand only once. Inconclusive results and toxic doses are left out.

Tested on: P388 leukemia ip, CD2F1 mice, survival T/C
Experiment: NCI In Vivo Anticancer Drug Screen. Data for tumor model P388 Leukemia (intraperitoneal) in CD2F1 (CDF1) mice
Conditions: endpoint: median survival time, higher = longer survival
In short: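 Mice carrying the transplanted tumor received test compound or vehicle. Survival was recorded in each group, and the value is the treated-group measurement divided by that of the vehicle-treated control group.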

[1] = dose: 20.0 mg/kg/injection, schedule: Q01DX009 (ip), vehicle: saline with Tween-80
[2] = dose: 50.0 mg/kg/injection, schedule: Q01DX005 (ip), vehicle: suspension in saline
[3] = dose: 100.0 mg/kg/injection, schedule: Q01DX005 (ip), vehicle: suspension in saline
[4] = dose: 200.0 mg/kg/injection, schedule: Q01DX005 (ip), vehicle: suspension in saline
[5] = dose: 50.0 mg/kg/injection, schedule: Q01DX005 (ip), vehicle: saline
[6] = dose: 25.0 mg/kg/injection, schedule: Q01DX009 (ip), vehicle: saline with Tween-80
[7] = dose: 50.0 mg/kg/injection, schedule: Q01DX009 (ip), vehicle: saline with Tween-80
[8] = dose: 200.0 mg/kg/injection, schedule: Q01DX009 (ip), vehicle: saline with Tween-80
[9] = dose: 50.0 mg/kg/injection, schedule: Q01DX005 (ip), vehicle: saline with Tween-80
[10] = dose: 25.0 mg/kg/injection, schedule: Q04DX003 (ip), vehicle: saline with Tween-80
[11] = dose: 100.0 mg/kg/injection, schedule: Q04DX003 (ip), vehicle: saline with Tween-80
[12] = dose: 60.0 mg/kg/injection, schedule: Q01DX005 (ip), vehicle: saline with Tween-80
[13] = dose: 120.0 mg/kg/injection, schedule: Q01DX005 (ip), vehicle: saline with Tween-80
[14] = dose: 240.0 mg/kg/injection, schedule: Q01DX005 (ip), vehicle: saline with Tween-80

Compound: O=c1[nH]c(=O)n(C2CC(O)C(CO)O2)cc1C(F)(F)F (configuration not stated)
- T/C [1]: 111 % of control
- T/C (dose: 31.25 mg/kg/injection, schedule: Q01DX009 (ip), vehicle: Klucel (hydroxypropylcellulose) (HPC)): 120 % of control
- T/C (dose: 40.0 mg/kg/injection, schedule: Q01DX009 (ip), vehicle: saline with Tween-80): 117 % of control
- T/C (dose: 62.5 mg/kg/injection, schedule: Q01DX009 (ip), vehicle: Klucel (hydroxypropylcellulose) (HPC)): 151 % of control
- T/C (dose: 80.0 mg/kg/injection, schedule: Q01DX009 (ip), vehicle: saline with Tween-80): 119 % of control
- T/C (dose: 125.0 mg/kg/injection, schedule: Q01DX005 (ip), vehicle: Klucel (hydroxypropylcellulose) (HPC)): 152 % of control
- T/C (dose: 125.0 mg/kg/injection, schedule: Q01DX009 (ip), vehicle: Klucel (hydroxypropylcellulose) (HPC)): 178 % of control and 183 % of control
- T/C (dose: 160.0 mg/kg/injection, schedule: Q01DX009 (ip), vehicle: saline with Tween-80): 111 % of control
- T/C (dose: 250.0 mg/kg/injection, schedule: Q01DX005 (ip), vehicle: Klucel (hydroxypropylcellulose) (HPC)): 161 % of control
- T/C (dose: 250.0 mg/kg/injection, schedule: Q01DX009 (ip), vehicle: Klucel (hydroxypropylcellulose) (HPC)): 176 % of control
- T/C (dose: 320.0 mg/kg/injection, schedule: Q01DX009 (ip), vehicle: saline with Tween-80): 102 % of control
- T/C (dose: 500.0 mg/kg/injection, schedule: Q01DX005 (ip), vehicle: Klucel (hydroxypropylcellulose) (HPC)): 151 % of control
- T/C (dose: 500.0 mg/kg/injection, schedule: Q01DX009 (ip), vehicle: Klucel (hydroxypropylcellulose) (HPC)): 100 % of control and 104 % of control
- T/C (dose: 640.0 mg/kg/injection, schedule: Q01DX009 (ip), vehicle: saline with Tween-80): 88 % of control

Compound: Cc1cn(CCCn2cnc3cncnc32)c(=O)[nH]c1=O
- T/C [2]: 98 % of control
- T/C [3]: 105 % of control
- T/C [4]: 96 % of control

Compound: COc1cccc2c1C(=O)c1c(O)c3c(c(O)c1C2=O)CC(O)(C(C)=O)CC3OC1CC(NCC2(O)OCC(O)C2O)C(O)C(C)O1 (configuration not stated)
- T/C (dose: 3.13 mg/kg/injection, schedule: Q04DX003 (ip), vehicle: water): 103 % of control
- T/C (dose: 6.25 mg/kg/injection, schedule: Q04DX003 (ip), vehicle: water): 100 % of control
- T/C (dose: 12.5 mg/kg/injection, schedule: Q04DX003 (ip), vehicle: water): 117 % of control
- T/C (dose: 25.0 mg/kg/injection, schedule: Q04DX003 (ip), vehicle: water): 112 % of control and 113 % of control
- T/C (dose: 50.0 mg/kg/injection, schedule: Q04DX003 (ip), vehicle: water): 122 % of control
- T/C (dose: 100.0 mg/kg/injection, schedule: Q04DX003 (ip), vehicle: water): 182 % of control
- T/C (dose: 200.0 mg/kg/injection, schedule: Q04DX003 (ip), vehicle: water): 108 % of control

Compound: CCOC(=O)c1cc2c(OC)c(OC)ccc2c2[nH]cc(C#N)c(=O)c12
- T/C (dose: 12.5 mg/kg/injection, schedule: Q01DX009 (ip), vehicle: distilled water + Tween-80): 100 % of control
- T/C (dose: 25.0 mg/kg/injection, schedule: Q01DX009 (ip), vehicle: distilled water + Tween-80): 94 % of control
- T/C (dose: 50.0 mg/kg/injection, schedule: Q01DX009 (ip), vehicle: distilled water + Tween-80): 93 % of control
- T/C (dose: 100.0 mg/kg/injection, schedule: Q01DX009 (ip), vehicle: distilled water + Tween-80): 90 % of control
- T/C (dose: 200.0 mg/kg/injection, schedule: Q01DX009 (ip), vehicle: distilled water + Tween-80): 86 % of control

Compound: O=C(CCCCC(=O)N1CCOCC1)N1CCOCC1
- T/C [5]: 100 % of control
- T/C (dose: 100.0 mg/kg/injection, schedule: Q01DX005 (ip), vehicle: saline): 101 % of control
- T/C (dose: 200.0 mg/kg/injection, schedule: Q01DX005 (ip), vehicle: saline): 101 % of control

Compound: [N-]=[N+]=NC1=CC(=O)C(c2ccccc2)=CC1=O
- T/C [6]: 100 % of control
- T/C [7]: 95 % of control
- T/C [8]: 103 % of control

Compound: CC1=CC(C)(C)Nc2ccc(CSc3ccccc3)cc21
- T/C (dose: 50.0 mg/kg/injection, schedule: Q01DX009 (ip), vehicle: DMSO): 111 % of control
- T/C [7]: 104 % of control
- T/C (dose: 100.0 mg/kg/injection, schedule: Q01DX009 (ip), vehicle: saline with Tween-80): 110 % of control
- T/C [8]: 96 % of control

Compound: S=C1SCN(CCc2c[nH]c3ccccc23)CN1CCc1c[nH]c2ccccc12
- T/C [9]: 92 % of control
- T/C (dose: 100.0 mg/kg/injection, schedule: Q01DX005 (ip), vehicle: saline with Tween-80): 90 % of control
- T/C (dose: 200.0 mg/kg/injection, schedule: Q01DX005 (ip), vehicle: saline with Tween-80): 92 % of control

Compound: CCN(CC)c1ccc2c(-c3ccccc3C(=O)O)c3ccc(=[N+](CC)CC)cc-3oc2c1
- T/C (dose: 5.0 mg/kg/injection, schedule: Q01DX009 (ip), vehicle: saline with Tween-80): 104 % of control
- T/C (dose: 10.0 mg/kg/injection, schedule: Q01DX009 (ip), vehicle: saline with Tween-80): 104 % of control
- T/C [1]: 100 % of control

Compound: CCC(=O)Oc1ccccc1C
- T/C (dose: 12.5 mg/kg/injection, schedule: Q04DX003 (ip), vehicle: saline with Tween-80): 103 % of control
- T/C [10]: 105 % of control
- T/C (dose: 50.0 mg/kg/injection, schedule: Q04DX003 (ip), vehicle: saline with Tween-80): 103 % of control
- T/C [11]: 103 % of control

Compound: CCOC(=O)Cc1cc(=O)oc2c(CN3CCN(c4ccc(C)cc4)CC3)c(O)ccc12
- T/C [12]: 100 % of control
- T/C [13]: 87 % of control
- T/C [14]: 99 % of control

Compound: Clc1nc2nc[nH]c2nc1Cl
- T/C (dose: 11.0 mg/kg/injection, schedule: Q01DX009 (ip), vehicle: saline with Tween-80): 100 % of control
- T/C (dose: 16.5 mg/kg/injection, schedule: Q01DX009 (ip), vehicle: saline with Tween-80): 104 % of control
- T/C [6]: 100 % of control
- T/C [10]: 91 % of control
- T/C (dose: 37.5 mg/kg/injection, schedule: Q01DX009 (ip), vehicle: saline with Tween-80): 100 % of control

Compound: CC(C)[C@@H]1CC[C@@H](C)C[C@H]1N
- T/C (dose: 12.5 mg/kg/injection, schedule: Q01DX005 (ip), vehicle: saline): 107 % of control
- T/C (dose: 25.0 mg/kg/injection, schedule: Q01DX005 (ip), vehicle: saline): 98 % of control
- T/C [9]: 113 % of control
- T/C [5]: 100 % of control

Compound: O=C1NC2CCC1CC2
- T/C [2]: 101 % of control
- T/C [3]: 97 % of control
- T/C [4]: 102 % of control

Compound: COc1ccc(O)c2c1C(=O)C=CC2=O
- T/C (dose: 0.4 mg/kg/injection, schedule: Q01DX001 (ip), vehicle: saline with Tween-80): 104 % of control
- T/C (dose: 0.8 mg/kg/injection, schedule: Q01DX001 (ip), vehicle: saline with Tween-80): 96 % of control
- T/C (dose: 1.56 mg/kg/injection, schedule: Q01DX001 (ip), vehicle: saline with Tween-80): 105 % of control
- T/C (dose: 3.13 mg/kg/injection, schedule: Q01DX001 (ip), vehicle: saline with Tween-80): 102 % of control

Compound: CN1C(c2ccccc2)=C(C#N)C(=O)CC(c2cccs2)N1C (configuration not stated)
- T/C [12]: 96 % of control
- T/C [13]: 99 % of control
- T/C [14]: 86 % of control

Compound: N#CC1CC(=O)c2ccccc2C1=O (configuration not stated)
- T/C (dose: 50.0 mg/kg/injection, schedule: Q01DX005 (ip), vehicle: Klucel (hydroxypropylcellulose) (HPC)): 102 % of control
- T/C (dose: 100.0 mg/kg/injection, schedule: Q01DX005 (ip), vehicle: Klucel (hydroxypropylcellulose) (HPC)): 104 % of control
- T/C (dose: 200.0 mg/kg/injection, schedule: Q01DX005 (ip), vehicle: Klucel (hydroxypropylcellulose) (HPC)): 108 % of control

Compound: COC(=O)C1C(O)CN2CCCC12C (configuration not stated)
- T/C [11]: 107 % of control
- T/C (dose: 200.0 mg/kg/injection, schedule: Q04DX003 (ip), vehicle: saline with Tween-80): 97 % of control
- T/C (dose: 400.0 mg/kg/injection, schedule: Q04DX003 (ip), vehicle: saline with Tween-80): 108 % of control

Compound: COc1ccc(NC(=O)Oc2ccc(C#N)cc2)cc1
- T/C (dose: 7.5 mg/kg/injection, schedule: Q01DX005 (ip), vehicle: Klucel (hydroxypropylcellulose) (HPC)): 108 % of control and 98 % of control
- T/C (dose: 15.0 mg/kg/injection, schedule: Q01DX005 (ip), vehicle: Klucel (hydroxypropylcellulose) (HPC)): 112 % of control and 98 % of control
- T/C (dose: 30.0 mg/kg/injection, schedule: Q01DX005 (ip), vehicle: Klucel (hydroxypropylcellulose) (HPC)): 105 % of control and 108 % of control
- T/C (dose: 60.0 mg/kg/injection, schedule: Q01DX005 (ip), vehicle: Klucel (hydroxypropylcellulose) (HPC)): 116 % of control and 123 % of control
- T/C (dose: 120.0 mg/kg/injection, schedule: Q01DX005 (ip), vehicle: Klucel (hydroxypropylcellulose) (HPC)): 117 % of control
